Measurements published in patent US20160223527A1, “An Immunological Assay To Detect And Quantify Acetylamantadine” (BIOMARK TECHNOLOGIES INC, priority 2013, published 2016).

Legend:
[1] = target: anti-acetylamantadine affinity-purified antibodies absorbed with amantadine; test: Competitive ELISA with affinity-purified antibodies against acetylamantadine absorbed with amantadine; type: binding, rabbit; conditions: soluble competitor incubated one hour with antibodies; plates coated with streptavidin and biotinylated acetylamantadine 2 ng/mL; FIG. 2
Procedure: The affinity-purified antibodies against acetylamantadine were flowed over a column of cyanogen-bromide coupled agarose beads conjugated with amantadine and the peak of IgG was taken.
Enzyme-linked immunosorbent assay (ELISA) plates were coated with the biotin-binding protein streptavidin at 2 μg/mL and blocked with skim milk. The ELISA plates were then washed with phosphate-buffered saline with an automated washer. Biotinylated acetylamantadine at 2 ng/mL was added to the streptavidin-coated ELISA plates so that acetylamantadine was bound to the streptavidin. The ELISA plates were then washed to remove the free biotinylated acetylamantadine. The soluble acetylamantadine or the amatidine was titrated in a separate 96-well plate and incubated for an hour with a small, previously determined concentration of anti-acetylamantadine affinity-purified antibodies absorbed with amantadine that gives a clear signal in the ELISA plates coated with acetylamantadine. […]
The ELISA was incubated for two hours and then the ELISA was developed by adding goat antibodies against rabbit IgG conjugated with alakine phosphatase. The substrate was added and the ELISA developed by standard methods and the optical densities were assayed by an ELISA reader and are shown in FIG. 1. […] If one makes quadruplicate assays of samples of urine, one can accurately quantify acetylamantadine in the assay. […]

[2] = target: affinity-purified antibodies against acetylamantadine; test: Competitive ELISA with affinity-purified antibodies against acetylamantadine, not absorbed with amantadine; type: binding, rabbit; conditions: FIG. 3
[3] = target: serum of a rabbit immunized repeatedly against acetylamantadine; test: Competitive ELISA with serum of a rabbit immunized repeatedly against acetylamantadine; type: binding; conditions: dilution of serum; FIG. 4
Procedure: A New Zealand white rabbit was immunized intramuscularly with 250 μg of the acetylamantadine-ovalbumin conjugate emulsified in complete Freund's adjuvant. The rabbit was boosted multiple times with acetylamantadine-ovalbumin conjugate, twice with 100 μg of acetylamantadine-conjugate keyhole-limpet hemocyanin and once with 4 pg of avidin coupled with an excess of biotinylated acetylamantadine with alum as an adjuvant. The rabbit was boosted with 100 μg of the acetylamantadine-ovalbumin conjugate 14 days before the rabbit was euthanized and bled out.
The rabbit blood was allowed to clot and the sera were collected. […]
Enzyme-linked immunosorbent assay (ELISA) plates were coated with the biotin-binding protein streptavidin at 2 μg/mL and blocked with skim milk. […] The soluble acetylamantadine or the amatidine was titrated in a separate 96-well plate and incubated for an hour with a small, previously determined concentration of anti-acetylamantadine affinity-purified antibodies absorbed with amantadine that gives a clear signal in the ELISA plates coated with acetylamantadine. […]
The ELISA was incubated for two hours and then the ELISA was developed by adding goat antibodies against rabbit IgG conjugated with alakine phosphatase. The substrate was added and the ELISA developed by standard methods and the optical densities were assayed by an ELISA reader and are shown in FIG. 1. […]

serum at 1:200 dilution = test: Acetylamantadine competitive ELISA using serum at 1:200 dilution (FIG. 5); type: binding, rabbit; conditions: serum 1:200; coating 2 ug/ml streptavidin and 6 ng/ml biotinylated acetylamantadine; tested 0.025 to 250 ng/ml
Procedure: It will accordingly be understood by a person skilled in the art that the immunological assay disclosed herein may be used to detect or quantify acetylamantadine in a patient who has taken a small dose of amantadine. This is shown in FIG. 5 which illustrates the results of an acetylamandine competitive ELISA with signal reading against acetylamantadine competitive concentration. The ELISA plate coating was 2 ug/ml streptavidin and 6 ng/ml biotinylated acetylamantadine. The competition ELISA using serum at 1:200 dilution against acetylamantadine ranging from 0.025 ng/ml to 250 ng/ml. Complete inhibition inhibition occurs near 100 ng/ml of soluble acetylamantadine. The detection limit (sensitivity) is near 0.5 ng/ml to 1.0 ng/ml The quantification of acetylamantadine can be used to quantify SSAT activity and elevated SSAT activity is an indication of diseases including, but not limited, to inflammations and cancers.

| Compound | concentration giving significant inhibition (50%) of the binding in the ELISA [1] [pg/mL] | concentration giving significant inhibition (50%) of the binding in the ELISA [2] [ng/mL] | concentration giving significant inhibition (50%) of the binding in the ELISA [3] [pg/mL] | concentration at which complete inhibition occurs (serum at 1:200 dilution) [ng/mL] |
| --- | --- | --- | --- | --- |
| CC(=O)NC12CC3CC(CC(C3)C1)C2 [acetylamantadine] | ~400 | ~1.3 | ~300 | ~100 |
| NC12CC3CC(CC(C3)C1)C2 [amantadine] | 4e+07 | 100000 | 1e+08 |  |
